From patent US20180344715A1, “WNT/BETA-CATENIN SIGNAL TRANSDUCTION INHIBITORS AND THEIR USE IN TREATMENT OR PREVENTION OF DISEASES AND CONDITIONS LINKED WITH SAID TRANSDUCTION” (BERGEN TEKNOLOGIOVERFORING AS, priority 2015, published 2018)

Key:
[1] = system: Wnt signals (TCF-GFP reporter); assay: TCF-GFP expression assay in transgenic zebrafish embryos; format: in vivo; conditions: embryos treated for 2 days
Procedure: Transgenic zebrafish harboring Tcf/Lef-miniP:dGFP reporter (line isi04) was obtained from National BioResource Project Zebrafish, Japan. Fish were kept under standard conditions and treated humanely in accordance with approved Institutional Animal Care and Use Committee of University of Bergen. For embryo experiments, embryos at 6 hpf (hours post fertilization) were cultured in 6-well plates (20 embryos per well) at 28° C. Embryos were treated with indicated chemicals and water was replenished daily. […] For TCF-GFP expression assay, embryos at 3 dpf were examined under fluorescence microscope. In both assays embryos that died during treatment were excluded from assessment.

SW480-7TGC cells = assay: Flow cytometry of SW480-7TGC cells with Hoechst33342; format: cell-based; conditions: 24 hours
Procedure: To establish stable cell lines containing Wnt reporters, lentiviral vector 7TGC or 7TC together with packaging plasmids pMD2.G and pCMVR8.74 were co-transfected into 293FT cells with lipofectamine 3000. After 16 hours, culture medium was replaced with medium for cells of interest. One day later, the culture medium was filtered through a 0.45 μm filter and incubated with cells for 24 hours. The transduced cells were assessed by fluorescence microscopy and fluorescence-activated cell sorting (FACS Aria, BD Biosciences).

HCT116 cells = assay: Soft agar colony-formation assay, HCT116; format: cell-based; conditions: 10 days
Procedure: The soft agar colony-formation assay was performed using the CellTransformation Assays kit (catalog no. CBA-130; Cell Biolabs, Inc.) according to the recommended protocol. […] Medium containing drugs was replaced every 3 d. For the clonogenic assay, positively transfected cells (wild-type and mutant GFP-SHPRH and control GFP) were enriched by FACS and were seeded in six-well plates at a density of 3,000 cells per well. Medium was changed every 3 d. On the last day colony growth was quantified by crystal violet staining and measurement of OD at 590 nm.

Apc^min/+ mice = assay: Apc min/+ mice study (intestinal adenomas, H&E and IHC); format: in vivo; conditions: 50 mg/kg daily for 5 weeks
Text: C57BL/6-Apc^min/+ mice were obtained from the Model Animal Research Center of Nanjing University (Nanjing, China). Mice were housed and fed a standard rodent diet at the Animal Facility of the Second Military Medical University (Shanghai, China) in compliance with the institutional guidelines of the Animal Care and Use Committee. […] The mice were weighed weekly and monitored daily for any signs of illness. The mice were sacrificed at the last day of the treatment. The small intestines were dissected, washed in PBS, fixed in 4% PBS-buffered formaldehyde and embedded in paraffin using standard procedures.
H&E and IHC were performed according to the protocol previously described (Qu, Y. et al, supra). Primary antibodies used for IHC were β-catenin (ab16051, 1:1000, Abcam), Ki67 (ab16667, clone SP6, 1:100, Abcam) and BrdU (ab6326, clone BU1/75, 1:80, Abcam). Investigators were blinded when counting the intestinal adenomas and assessing the homeostasis of mice and fish intestine. Histologic images were captured using the Qcapture Suite software with a Qimaging Exi Blue camera attached to a Leica DMRBE microscope.

RKO cells = assay: EdU label release assay, RKO; format: cell-based; conditions: 5 μM, 3 days
Procedure: Two days later, cells were seeded singly onto 12 mm glass coverslips in 24-well plates. One day after, EdU was detected using the Click-iT® Plus EdU Alexa Fluor 488 Imaging Kit (Life Technologies, C10637) according to the manufacturer's protocol. For double staining of EdU and other proteins, the EdU stained cells were further used for immunofluorescence staining as described above. Intensity of EdU staining in paired cells were quantified by Photoshop CS6 software, unequal EdU distribution was considered when paired cells had intensity ratio higher than 2.

β-catenin = assay: Immunofluorescence staining of β-catenin in SW480 cells; format: cell-based; conditions: SW480, 5 μM, 24 hours
Procedure: Cells were seeded singly on 12 mm glass coverslips in 24-well plates. At the second day, cells were washed with PBS, fixed in 4% PBS buffered paraformaldehyde at room temperature for 20 minutes, permeabilized in 0.5% Triton X-100 for 10 minutes, blocked in 100 mM glycine for 5 minutes and with PBS wash between each step. After blocking with 0.5% BSA/PBS for 15 minutes, cells were incubated with primary antibodies (β-catenin, ab16051, 1:1000, Abcam; Ki67, ab16667, clone SP6, 1:50, Abcam) in 0.5% BSA/PBS for 1 hour at room temperature. The FITC-labelled secondary antibody (Southern Biotech, 4050-02) was added for 45 minutes at room temperature. Coverslips were mounted in SlowFade® Diamond Antifade Mountant with DAPI (Life Technologies, S36964) on glass slides. Images were captured using the Qcapture Suite software with a Qimaging Exi Blue camera attached to a Leica DMRBE microscope.

MED23 = target: T1, MED23 (Homo sapiens, UniProt Q9ULK4); assay: Cellular thermal shift assay (CETSA), MED23; format: binding; conditions: SW480, 10 μM
T1 construct: endogenous in cells; host or cells: SW480
T1 sequence (Q9ULK4 1-1368): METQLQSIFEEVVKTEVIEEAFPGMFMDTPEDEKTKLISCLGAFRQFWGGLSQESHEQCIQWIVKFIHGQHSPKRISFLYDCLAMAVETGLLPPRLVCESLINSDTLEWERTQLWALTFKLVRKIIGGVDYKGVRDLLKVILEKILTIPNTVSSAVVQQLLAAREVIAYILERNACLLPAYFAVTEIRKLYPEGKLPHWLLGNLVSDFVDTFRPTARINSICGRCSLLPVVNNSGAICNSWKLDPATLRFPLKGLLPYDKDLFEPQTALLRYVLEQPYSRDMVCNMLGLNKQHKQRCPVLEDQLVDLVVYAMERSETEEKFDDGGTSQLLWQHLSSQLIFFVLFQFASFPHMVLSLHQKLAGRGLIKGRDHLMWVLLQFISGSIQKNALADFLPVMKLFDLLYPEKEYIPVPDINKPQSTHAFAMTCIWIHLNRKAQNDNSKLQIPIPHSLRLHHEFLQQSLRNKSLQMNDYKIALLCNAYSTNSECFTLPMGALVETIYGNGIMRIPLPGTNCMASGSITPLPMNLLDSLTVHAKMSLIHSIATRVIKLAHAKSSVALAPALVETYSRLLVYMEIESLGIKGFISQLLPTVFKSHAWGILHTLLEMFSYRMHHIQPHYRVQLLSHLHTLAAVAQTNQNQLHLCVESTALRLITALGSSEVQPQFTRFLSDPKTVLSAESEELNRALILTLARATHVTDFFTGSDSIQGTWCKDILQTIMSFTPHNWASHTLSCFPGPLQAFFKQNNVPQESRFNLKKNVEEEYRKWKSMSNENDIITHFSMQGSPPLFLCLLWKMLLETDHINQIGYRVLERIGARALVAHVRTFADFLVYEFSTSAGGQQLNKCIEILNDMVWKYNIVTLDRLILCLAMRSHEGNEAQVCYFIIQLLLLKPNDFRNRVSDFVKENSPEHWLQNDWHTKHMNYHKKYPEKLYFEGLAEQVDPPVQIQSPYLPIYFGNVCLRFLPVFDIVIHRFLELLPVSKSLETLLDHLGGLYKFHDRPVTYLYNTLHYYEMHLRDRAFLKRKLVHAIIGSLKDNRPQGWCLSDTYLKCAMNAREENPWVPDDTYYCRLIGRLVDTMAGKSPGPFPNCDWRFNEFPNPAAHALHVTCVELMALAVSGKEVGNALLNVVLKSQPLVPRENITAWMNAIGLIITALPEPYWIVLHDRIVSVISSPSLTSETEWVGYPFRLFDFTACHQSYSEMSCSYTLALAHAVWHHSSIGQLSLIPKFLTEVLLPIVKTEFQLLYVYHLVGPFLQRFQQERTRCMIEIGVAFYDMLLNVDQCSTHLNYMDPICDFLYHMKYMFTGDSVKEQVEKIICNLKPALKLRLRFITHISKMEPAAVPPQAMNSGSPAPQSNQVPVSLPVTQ
Procedure: CETSA in intact cells was performed according to the protocol previously described (Martinez Molina, D. et al., 2013, Science 341, 84-87). Briefly, SW480 cells were seeded equally in 2 T75 flasks and allowed to reach 80% confluence one day after. […] After trypsinization and PBS wash, cells were resuspended in 450 μl PBS containing freshly added protease inhibitors and equally divided between 7 tubes. Cells in each tube were heated at indicated temperatures for 3 minutes and kept at room temperature for 3 minutes. Heated cells were lysed by 3 cycles of freezing in liquid nitrogen (1 minute) and thawing in room temperature water (1 minute). The cell lysates were centrifuged at 20,000 g for 20 minutes at 4° C. The soluble fractions were isolated for Western blotting analysis.

Compound: CNC(=O)c1ccccc1Sc1ccc2c(/C=C/c3ccccn3)n[nH]c2c1 [axitinib, N-Methyl-2-[[3-[(E)-2-pyridin-2-ylethenyl]-1H-indazol-6-yl]sulfanyl]benzamide]
- TCF-GFP expression in the midbrain/hindbrain boundary and fin mesenchyme [1]: decreased
- TCF-GFP^low cells (SW480-7TGC cells): increased
- apoptosis in TCF-GFP^low cells (SW480-7TGC cells; Hoechst33342): induced apoptosis
- colony growth (HCT116 cells): strongly and dose-dependently inhibited
- normal-looking small intestine: mucosa organization, crypt density, distribution of Ki67 positive cells (Apc^min/+ mice): no obvious change
- nuclear β-catenin in adenomas (IHC) (Apc^min/+ mice): reduced nuclear β-catenin
- staining of the proliferation marker Ki67 in adenomas (Apc^min/+ mice): Obviously weaker staining
- numbers of multi-villus adenomas and microadenomas (Apc^min/+ mice; oral gavage): significantly decreased
- EdU ACD (RKO cells): pre-treatment with 6B10 was required for EdU ACD induction
- cells with unequal distribution of nuclear β-catenin (β-catenin ACD) (β-catenin): ~19%
- direct binding in intact living cells (MED23): confirmed
